In patent publication US20030153544A1, “Fatty acid derivatives” (priority 1997, published 2003):
pIC50: −log10 of the molar value.

Tests used:
[1] = drug toxicity LD50 in tumour-bearing mice, single intraperitoneal dose; type: in vivo, BALB/C female mice; details: for LD50 at 10 days: female, BALB/C, mouse, in vivo, ip, read-out: Mother compound LD50
Description: (§1) Murine solid ADJ/PC6 plasmacytoma and its subline selected for resistance to cisplatin and other alkylating agents was implanted subcutaneously as 1 mm^3 tumour fragments into BALB/C female mice weighing 20-25 grams. Melphalan or melphalan-elaidic amide, or chlorambucil or chlorambucil-oleylester, were administered by intraperitoneal, single dose 20 days post subcutaneous tumour implantation. Tumours were dissected on day 30, and weights of control and treated groups were compared. Activity was based on the measurement of drug toxicity, LD50 in mg/kg compared to anti-tumour effect measured as ED90, the dose in mg/kg required to reduce tumour mass by 90% compared to controls.

[2] = system: cisplatin-resistant subline of ADJ/PC6 plasmacytoma; assay: antitumour effect in vivo, cisplatin-resistant subline of ADJ/PC6 plasmacytoma; parameters: species or system murine
Description: as §1

[3] = system: rat peritoneal monocytes/macrophages; assay: effect on rat peritoneal monocytes/macrophages after intraperitoneal injection (cell counts, chemoluminescence on stimulation); type: in vivo; details: for activity (chemoluminescence) of zymosan stimulated peritoneal cells: 6, 12, 25, 48 and 72 hours post treatment, FIG. 5
[4] = system: endotoxin induced airway changes; assay: endotoxin (LPS) induced airway changes in rats, airway hyperresponsiveness model; type: in vivo, F344 rats
Description: In a model of acute inflammatory airway changes in rats, the animals are exposed to aerosolized endotoxin (LPS). […] 10 male F344 rats were exposed to 100 μg/ml LPS for 30 minutes in a chamber. 12 and 4 hours prior to aerosol exposure the animals were treated with either prednisolone or the prednisolone derivative by instillation, 3 mg/kg. 90 minutes after the end of the aerosol exposure, the animals were prepared for assessment of airway responsiveness to 5-hydroxytryptamine and evaluation of airway inflammation. 5HT was added intravenously every 5 minutes until minimum 50% increase in lung resistance is observed, and the amount of 5 HT necessary to increase the lung resistance with 50%, PC50RL was calculated.

[5] = system: NK65 strain drug sensitive P. berghei; assay: 4-day test in P. berghei infected mice; type: in vivo; details: for ED50: Plasmodium berghei, ip, 96 h, 50% reduction in parasites in blood, read-out: ED50 value (SE); for ED50 / ED90 value / ED99 value: i.p. for 4 days, elaidate values × 433/600; for ED90 value: 90% reduction in parasites in blood; for ED99 value: 99% reduction in parasites in blood
Description: A 4-day test in NK65 strain drug sensitive P. berghei was carried out in Swiss albino female mice with doses of 0.063, 0.25, 1.0 and 4 mg/kg hydroxychloroquine-elaidate and 0.094, […], 1.5 and 6 mg/kg hydroxychloroquine given intraperitoneally for 4 days to groups of 3 mice per group. The parasite inoculum of 10^7 infected cells was given intravenously on day 0 and follwoed by the drug dose for that day. The animals were dosed for the 3 following days and on the 5th day tail blood films were prepared for parasitaemia estimation. […] These findings could be of great importance in the treatment of malaria in man.
The effective doses giving 50%, 90% and 99% reduction in P. berghei malaria parasites in the blood of mice with either hydroxychloroquine sulphate or hydroxychloroquine-elaidate is shown in this table.

[6] = system: COR-L23/P and its resistant cell line COR-L23/R; type: cell-based, human; details: for fluorescence due to uptake in resistant and non-resistant cells: drug concentration 10 μM, FIG. 12; for cellular accumulation (concentration) in COR-L23/R compared with COR-L23/P: drugs at 20 μM, FIG. 11
Description: Cells were exposed in suspension at 2×10^5/ml to drugs at 20 μM. Aliquots were taken at various times and rinsed in ice cold PBS before being passed through the flow cytometre.
Cells were exposed to Daunorubicine, Daunorubicine elaidic amide and Daunorubicine oleic carbamate, as described above. Drug concentration was reduced to 10 μM.

[7] = system: granuloma induced cartilage degradation; details: daily oral; for glycosaminoglycan content of implanted cartilage, less than liposome-treated control group / hydroxyproline content of implanted cartilage, less than liposome-treated control group / reduction of granuloma tissue dry weight versus liposome-treated control / reduction of fluid mass of the granulomas versus liposome-treated control: naproxen 30 mg/kg, derivatives 60 mg/kg; for glycosaminoglycan content of implanted cartilage, less than liposome-treated control group / hydroxyproline content of implanted cartilage, less than liposome-treated control group: implants 2 weeks; for reduction of granuloma tissue dry weight versus liposome-treated control / reduction of fluid mass of the granulomas versus liposome-treated control: liposomes; for reduction of granuloma tissue dry weight versus liposome-treated control: control 14.36 mg; for reduction of fluid mass of the granulomas versus liposome-treated control: control 62.69 mg
Description: The in vivo model of granuloma induced cartilage degradation which was employed involves the implantation of sterile cotton-wrapped rat femoral head cartilage subcutaneously on the backs of mice. The cotton provokes a granulomatous response with a demonstrable T cell involvement which leads to loss of matrix compounds from the implanted cartilage. […] It involves chronic erosive disease with quantitative biochemical end points for determining the loss of cartilage matrix. Antiinflammatory activity can be judged from the wet and dry mass of the cotton granuloma, chondroprotective activity can be determined from glycosaminoglycan and hydroxyproline content (indicative of proteoglycan and collagen respectively) of the implanted cartilage.
Groups of female (n=10) TO mice (21±4 g) received a subcutaneous implant of cotton-wrapped rat femoral head cartilage. At 2 weeks the implants were removed. The cotton provoked a granulomatous response with concomitant release of proteoglycan from the implanted cartilage. The effects of daily oral administration of equimolar amounts of naproxen (30 mg/kg) and naproxen derivatives (60 mg/kg) on granuloma development and cartilage proteoglycan content were assessed. The compounds were formulated as liposomes with empty liposomes acting as vehicle control.
A 15 mg/ml liposomal formulation is prepared by the 1:1 (w/w) mixing of the specific lipid derivatives (in DMSO) and lecithin (in ethanol) in a glycerol/sterile water buffer with subsequent dialysis to remove the solvents. A 7.5 mg/ml liposomal formulation of the underivatised NSAID compounds is prepared by the addition of the specific compound to empty liposomes in glycerol/sterile water.
Results were analysed with INSTAT using Mann-Whitney and with p values corrected for ties. Values of p<0.05 were taken as significant.

ADJ/PC6 plasmacytoma = assay: antitumour effect in vivo, murine subcutaneous ADJ/PC6 plasmacytoma (sensitive); details: i.p. single dose day 20, tumours weighed day 30
Description: as §1

[8] = system: H69/LX4, human small lung cell line, overexpressing PgP
Description: An MTT assay was used to determine the toxicity of compounds. The cells were exposed to the compounds for 6 days prior to assaying. The cell line used was H69/LX4, human small lung cell line, overexpressing PgP.

[9] = i.p. single dose day 20, tumours weighed day 30

Question: For `N[C@@H](Cc1ccc(N(CCCl)CCCl)cc1)C(=O)O` [Melphalan, L-3-[p-[bis(2-chlorethyl)amino]-phenyl]alanine, reference compound], which LD50 at 10 days [1] is on record?
Answer: 23 mg/kg

Question: What about the “ED90, dose required to reduce tumour mass by 90% compared to controls” value [2, 9] of the same molecule?
Answer: no activity

Question: What does the source list for `CCCCCCCC/C=C/CCCCCCCC(=O)OCC(=O)[C@@]1(O)CC[C@H]2[C@@H]3CCC4=CC(=O)C=C[C@]4(C)[C@H]3[C@@H](O)C[C@@]21C` [prednisolone-elaidate, 11β, 17α, 21-trihydroxypregna-1,4-diene-3,20-dione-21-elaidate]?
Answer: chemiluminescence of stimulated peritoneal cells, comparison of 7 fatty acid esters of prednisolone ([3]; i.p. 10 mg/ml, 48 hours post treatment, FIG. 6): the best; activity (chemoluminescence) of zymosan stimulated peritoneal cells ([3]; i.p. 4 ml at 10 mg/ml): reduced compared to control for up to 48 hours post treatment; airway responsiveness to 5-hydroxytryptamine (PC50RL) ([4]; rat, in vivo): affected to a surprisingly high extent; number of inflammatory cells in the bronchoalveolar fluid ([4]; rat, in vivo): Neither prednisolone nor the derivative did influence

Question: What does the source list for `CCN(CCO)CCCC(C)Nc1ccnc2cc(Cl)ccc12` (stereo not shown) [Hydroxychloroquine sulphate, 7-chloro-4-[4-[ethyl(2-hydroxyethyl)amino]1-methylbutylamino]quinoline, reference compound]?
Answer: ED50 [5]: 1.74 mg/kg; ED90 value [5]: 2.75 mg/kg; ED99 value [5]: 4.52 mg/kg

Question: With `CCCCCCCC/C=C\CCCCCCCCOC(=O)CCCc1ccc(N(CCCl)CCCl)cc1` [chlorambucil-oleylester, Chlorambucil-oleyl ester] as the molecule, how does the “Derivative LD50” value [1] read?
Answer: >1600 mg/kg

Question: With `C[C@]12C=CC(=O)C=C1CC[C@@H]1[C@@H]2[C@@H](O)C[C@@]2(C)[C@H]1CC[C@]2(O)C(=O)CO` [prednisolone, 11β, 17α, 21-trihydroxypregna-1,4-diene-3,20-dione, reference compound] as the molecule, how does the “activity (chemoluminescence) of zymosan stimulated peritoneal cells” value ([3]; i.p. 4 ml at 10 mg/ml) read?
Answer: slight reduction of the chemoluminescence at 6 hours

Question: What about the “number of macrophages in peritoneal lavage” value ([3]; i.p. 4 ml at 10 mg/ml, 6-72 hours, FIG. 8, FIG. 9) of the same molecule?
Answer: much less pronounced, and only seen at 6 and 12 hours

Question: What about the “number of inflammatory cells in the bronchoalveolar fluid” value ([4]; instillation 3 mg/kg, 12 and 4 hours prior to LPS aerosol) of the same molecule?
Answer: Neither prednisolone nor the derivative did influence

Question: For `CCCCCCCCC=CCCCCCCCCOC(=O)NC1CC(OC2CC(O)(C(C)=O)Cc3c(O)c4c(c(O)c32)C(=O)c2c(OC)cccc2C4=O)OC(C)C1O` (stereo not drawn) [Daunorubicine oleic carbamate, N-(cis-9-octadecen-1-oxycarbonyl)daunorubicin], which “fluorescence due to uptake in resistant and non-resistant cells” value [6] is on record?
Answer: more or less equal in the two cell types

Question: Which results are given for `COc1ccc2cc([C@H](C)C(=O)O)ccc2c1` [naproxen, S(+)-2-(6-methoxy-2-naphthyl)propionic acid, reference compound]?
Answer: implants lost through aggressive behaviour of the animals ([7]; 2 weeks, n=10): 4 out of 10; glycosaminoglycan content of implanted cartilage, less than liposome-treated control group [7]: 16%; hydroxyproline content of implanted cartilage, less than liposome-treated control group [7]: 12%; reduction of granuloma tissue dry weight versus liposome-treated control ([7]; 2 weeks): no effect; reduction of fluid mass of the granulomas versus liposome-treated control ([7]; 2 weeks): 12%

Question: For `CCCCCCCC/C=C/CCCCCCCC(=O)NC(Cc1ccc(N(CCCl)CCCl)cc1)C(=O)O` (stereo not shown) [melphalan-elaidic amide, Elaidic acid melphalan amide], which “ED90, dose required to reduce tumour mass by 90% compared to controls” value (ADJ/PC6 plasmacytoma) is on record?
Answer: ED90 was achieved

Question: And the “Derivative LD50” value [1]?
Answer: 180 mg/kg

Question: What about the “ED90, dose required to reduce tumour mass by 90% compared to controls” value [2, 9] of the same molecule?
Answer: 60 mg/kg

Question: And the “ED90, dose required to reduce tumour mass by 90% compared to controls” value ([2]; i.p. single dose day 20, tumours weighed day 30, listed as melphalan-elaidic acid amide)?
Answer: ED90 was achieved

Question: For `CCCCCCCC/C=C\CCCCCCCCNC(=O)[C@@H](C)c1ccc2cc(OC)ccc2c1` (stereo in doubt) [naproxen oleyl amide, S(+)-2-(6-methoxy-2-naphthyl)propionic acid-(cis-9′-octadecenyl)-amide], which “glycosaminoglycan content of implanted cartilage, less than liposome-treated control group” value [7] is on record?
Answer: 11%

Question: What about the “hydroxyproline content of implanted cartilage, less than liposome-treated control group” value [7] of the same molecule?
Answer: 3%

Question: And the “reduction of granuloma tissue dry weight versus liposome-treated control” value ([7]; 2 weeks)?
Answer: 38%

Question: What about the “reduction of fluid mass of the granulomas versus liposome-treated control” value ([7]; 2 weeks) of the same molecule?
Answer: 22%

Question: With `COc1cccc2c1C(=O)c1c(O)c3c(c(O)c1C2=O)C[C@@](O)(C(=O)CO)C[C@@H]3O[C@H]1C[C@H](N)[C@H](O)[C@H](C)O1` [Doxorubicine, reference compound] as the molecule, how does the “cellular accumulation (concentration) in COR-L23/R compared with COR-L23/P” value (“cellular accumulation … compared with COR-L23/P” for short) [6] read?
Answer: much lower in the resistant cell line

Question: With `CCCCCCCC/C=C\CCCCCCCCOc1ccc2cc([C@H](C)C(=O)O)ccc2c1` (stereo in doubt) [naproxen oleyl ether, S(+)-2-(6-[cis-9′-octadecenoxy]-2-naphthyl)-propionic acid] as the molecule, how does the “reduction of granuloma tissue dry weight versus liposome-treated control” value ([7]; 2 weeks) read?
Answer: 16%

Question: What about the “reduction of fluid mass of the granulomas versus liposome-treated control” value ([7]; 2 weeks) of the same molecule?
Answer: 9%

Question: With `CCCCCCCC/C=C/CCCCCCCC(=O)OCCN(CC)CCCC(C)Nc1ccnc2cc(Cl)ccc12` (stereo not shown) [Hydroxychloroquine-elaidate, 7-chloro-4-[4-[ethyl(2-elaidoyloxyethyl)amino]1-methylbutylamino]-quinoline] as the molecule, how does the ED50 [5] read?
Answer: 0.71 mg/kg

Question: What about the ED90 value [5] of the same molecule?
Answer: 0.93 mg/kg

Question: What about the ED99 value [5] of the same molecule?
Answer: 1.24 mg/kg

Question: And the “times more effective than hydroxychloroquine itself” value ([5]; on a molar basis, 4 day test)?
Answer: 2.5- 3 times

Question: For `CCCCCCCC/C=C\CCCCCCCCOC(=O)N[C@H]1C[C@H](O[C@H]2C[C@](O)(C(=O)CO)Cc3c(O)c4c(c(O)c32)C(=O)c2c(OC)cccc2C4=O)O[C@@H](C)[C@H]1O` (relative stereo) [Doxorubicine-oleyl-carbamate, N-(cis-9-octadecen-1-oxycarbonyl)doxorubicin], which “cellular accumulation … compared with COR-L23/P” value [6] is on record?
Answer: approximately the same

Question: Which “fluorescence due to uptake in resistant and non-resistant cells” value [6] does the source give for “Elaidic acid daunorubicin amide [Daunorubicine elaidic amide]” here?
Answer: more or less equal in the two cell types

Question: For `CCCCCCCC/C=C\CCCCCCCCOC(=O)[C@@H](C)c1ccc2cc(OC)ccc2c1` (stereo in doubt) [naproxen oleyl ester, S(+)-2-(6-methoxy-2-naphthyl)propionic acid-cis-9′-octadecenyl-ester], which “glycosaminoglycan content of implanted cartilage, less than liposome-treated control group” value [7] is on record?
Answer: 12%

Question: What about the “hydroxyproline content of implanted cartilage, less than liposome-treated control group” value [7] of the same molecule?
Answer: 8%

Question: What about the “reduction of granuloma tissue dry weight versus liposome-treated control” value ([7]; 2 weeks) of the same molecule?
Answer: 12%

Question: And the “reduction of fluid mass of the granulomas versus liposome-treated control” value ([7]; 2 weeks)?
Answer: 14%

Question: For `CCCCCCCCC=CCCCCCCCC(=O)NC1CC(OC2CC(O)(C(=O)CO)Cc3c(O)c4c(c(O)c32)C(=O)c2c(OC)cccc2C4=O)OC(C)C1O` (stereo not shown) [Doxorubicine-elaidic-amide, Elaidic acid doxorubicin amide], which “cellular accumulation … compared with COR-L23/P” value [6] is on record?
Answer: approximately the same

Question: What about the pIC50 [8] of the same molecule?
Answer: < 4.30

Question: For `O=C(O)CCCc1ccc(N(CCCl)CCCl)cc1` [Chlorambucil, 4-[p-[bis(2-chlorethyl)amino]-phenyl]butyric acid, reference compound], which LD50 at 10 days [1] is on record?
Answer: 57 mg/kg
